Reference: article PMC10788915, “Fragment Merging, Growing, and Linking Identify New Trypanothione Reductase Inhibitors for Leishmaniasis” (Journal of Medicinal Chemistry, 2024)
Where two headings read alike, the source gives them in different places.

Tests used:
[1] = system: human THP-1-derived macrophages; assay: Cytotoxicity assay on human THP-1-derived macrophages (MTT); assay type: cell-based; conditions: for CC50: 72 h, MTT, read-out: human THP-1-derived macrophage CC50 ± SE (95% CI)
Method: (§1) To assess the cytotoxicity of compounds on mammalian macrophages, we tested all the compounds against both human leukemia monocyte cell line (THP-1 cells, ATCC) differentiated into macrophages by treatment with 40 ng/mL of phorbol myristate acetate (PMA; Sigma) for 48 h and peritoneal exudate macrophages harvested from Balb/c mice. […] Cell viability was evaluated using the MTT assay, and the concentration of the compound that produced a 50% reduction of cell viability in treated culture cells with respect to untreated ones (CC50) was determined by GraphPad Prism 5.0 (GraphPad Software Inc., San Diego, USA). […] The selectivity index for each compound was calculated as the ratio of cytotoxicity (CC50) in macrophages cells to activity (IC50) against Leishmania axenic amastigotes. The experiments were performed in triplicate, and two independent experiments were conducted.

[2] = as above; assay type: cell-based; conditions: human, THP-1 cells differentiated into macrophages with PMA, 72 h, MTT; read-out: human THP-1-derived macrophage CC50 ± SE (95% CI)
Method: as §1

[3] = target: T1, Leishmania infantum TR (LiTR) (Leishmania infantum, UniProt A4HSF7); assay: LiTR enzymatic inhibition assay (NADPH oxidation at 340 nm); assay type: biochemical; conditions: for remaining activity at 10 µM / remaining activity at 100 µM / LiTR residual activity %: mean ± SD, n = 3; for remaining activity at 10 µM / remaining activity at 100 µM: read-out: LiTR residual activity %; for IC50: 50 nM LiTR, 150 μM trypanothione, 100 μM NADPH, 25 °C
T1 construct: The TbTR and LiTR genes were subcloned in a pET28b vector; 6-His (cleaved yes); made in house; host or cells: E. coli BL21(DE3), pET28b
Method: (§2) Enzymatic inhibition assays were performed in 50 mM HEPES pH 7.4, 40 mM NaCl at 25 °C using a JASCO V650 spectrophotometer equipped with a JASCO EHC 716 Peltier element to ensure controlled temperature. The first experiment was carried out using 50 nM LiTR, 10 or 100 μM compound to be tested, 150 μM trypanothione (trypanothione disulfide purchased from Bachem), and 100 μM NADPH (tetrasodium salt, purchased from Calbiochem). The best inhibitor candidates were then tested at concentrations ranging from 1 nM to 250 μM to determine the IC50. Assays were initiated upon addition of 100 μM NADPH to 50 nM LiTR or hGR (human glutathione reductase purchased from Sigma-Aldrich) in the presence of different concentration of compounds and 150 μM trypanothione. For both experiments, the oxidation of NADPH was followed as a decrease in absorbance at 340 nm. For each concentration of compound, the initial velocity of the NADPH oxidation was used to determine the percentage of LiTR activity with respect to that in the absence of any compound. The IC50 was determined upon fitting the residual activity of TR as a dose–response logistic equation defined as ymin + (ymax – ymin)/(1 + (x/IC50)^slope). […] The Ki was determined graphically upon linear fitting of data points for each trypanothione concentration. Data analysis was performed with QtiPlot 0.9.8.9 svn 2288, and graphs were made with Matplotlib.
(§3) Figure S3. Inhibition assay of LiTR (red) and hGR (grey) with compounds 5-6, 9-10 and 14.
(§4) Enzymatic assays were carried out at 25°C on a JASCO V650 spectrophotometer equipped with a JASCO EHC716 Peltier unit. Compound concentrations used during the experiments range from 1 […]
(§5) higher than 30 µM and 20 µM, respectively. Briefly, 50 nM LiTR or hGR (Sigma Aldrich) were mixed in 50 mM HEPES pH 7.4, 40 mM NaCl with each compound and 150 µM trypanothione or glutathione. After 3-minute incubation at 25°C, the measurement was initiated upon addition of 100 µM NADPH. The oxidation of NADPH was followed as a decrease in absorbance at 340 nm. Each initial velocity of LiTR enzymatic reaction with the compounds was expressed as a percentage of residual activity with respect to that in the absence of compound. Each data point is the mean of two measurements. The IC50 was determined upon fitting the data as a dose response logistic equation defined by the Kaleidagraph software as ymin+(ymax-ymin)/(1+(x/IC50)^slope).
(§6) (1 picture or pasted object on this page, not shown here)

[4] = Cytotoxicity assay on primary murine macrophages (MTT); assay type: cell-based, Balb/c mice; conditions: Balb/c, mouse, primary peritoneal exudate macrophages, read-out: primary murine macrophage CC50 ± SE (95% CI)
Method: as §1

[5] = system: L. infantum axenic amastigotes; assay: In vitro inhibition of axenic amastigote growth (MTT); assay type: cell-based, Leishmania infantum; conditions: 72 h, read-out: axenic amastigote EC50 ± SE (95% CI)
Method: Axenic amastigote growth inhibition was evaluated using L. infantum strain (MHOM/TN/80/IPT1, WHO international reference strain). Axenic amastigote cultures were obtained as described previously with modifications.[45] Promastigotes were grown in Schneider’s Drosophila medium (SIGMA) containing 10% heat-inactivated fetal calf serum (FCS)(GIBCO-BRL) and 2% gentamicin (50 mg/L)(Sigma) in 25 cm^2 flasks at 22 °C. After 4–5 days, the parasites were adjusted to 1 × 10^6 parasites/mL in axenic medium MAA/20 consisting of modified medium 199 (Gibco BRL) with Hanks’ salts supplemented with 0.5% tryptic soy broth (Sigma), 0.01 mM bathocuproine disulfonic acid, 3 mM L-cysteine, 15 mM D-glucose, 5 mM L-glutamine, 4 mM NaHCO3, 0.023 mM bovine hemin, and 25 mM HEPES to a final pH of 6.5 and supplemented with 20% pretested FCS, and axenic amastigotes were obtained by shifting the incubation conditions: 198 μL of suspension was seeded in triplicate in 96-well flat bottom microplates and incubated at 37 °C, 5% CO2 for 48 h in order to allow the axenization. The amastigote cells were visualized under the light microscope to confirm transformation. Then, 2 μL of the selected compounds with varying concentrations were added: 100, 50, 25, 12.5, 6.25, 3.12, 1.56, 0.8, 0.4, 0.2, 0.1, 0.05 μM. […] Each experiment was conducted in triplicate for each drug concentration, and three independent experiments were performed. To estimate the 50% inhibitory concentration (IC50), the (3-[4.5-dimethylthiazol-2-yl]-2.5-diphenyltetrazolium bromide) (MTT) micromethod was used throughout the experiments with modification. After 72 h of incubation, 30 μL of MTT was added to each well, and the plates were further incubated for 3 h. The absorbance at 550 nm was measured with a 96-well scanner. Antileishmanial activity was expressed as the percentage of inhibition in the number of live parasites compared to that in the control (nontreated parasites). % inhibition was calculated as follows: % growth inhibition = [(absorb cell with drug × 100)/absorb cell control] – 100. Results were analyzed by GraphPad Prism 5.0, dose–response curves were obtained and IC50 deduced (GraphPad Software Inc., San Diego, USA).

[6] = system: primary murine macrophages; assay: Cytotoxicity assay on primary murine macrophages (MTT); assay type: cell-based, Balb/c mice; conditions: Balb/c peritoneal macrophages, 72 h, read-out: primary murine macrophage CC50 ± SE (95% CI)
Method: as §1

[7] = target: T2, hGR (human glutathione reductase) (Homo sapiens, UniProt P00390); assay: hGR enzymatic inhibition assay (NADPH oxidation at 340 nm); assay type: biochemical; conditions: for IC50: 50 nM hGR, 100 μM NADPH, 25 °C
T2 construct: purchased Sigma-Aldrich
T2 sequence (P00390 44-522): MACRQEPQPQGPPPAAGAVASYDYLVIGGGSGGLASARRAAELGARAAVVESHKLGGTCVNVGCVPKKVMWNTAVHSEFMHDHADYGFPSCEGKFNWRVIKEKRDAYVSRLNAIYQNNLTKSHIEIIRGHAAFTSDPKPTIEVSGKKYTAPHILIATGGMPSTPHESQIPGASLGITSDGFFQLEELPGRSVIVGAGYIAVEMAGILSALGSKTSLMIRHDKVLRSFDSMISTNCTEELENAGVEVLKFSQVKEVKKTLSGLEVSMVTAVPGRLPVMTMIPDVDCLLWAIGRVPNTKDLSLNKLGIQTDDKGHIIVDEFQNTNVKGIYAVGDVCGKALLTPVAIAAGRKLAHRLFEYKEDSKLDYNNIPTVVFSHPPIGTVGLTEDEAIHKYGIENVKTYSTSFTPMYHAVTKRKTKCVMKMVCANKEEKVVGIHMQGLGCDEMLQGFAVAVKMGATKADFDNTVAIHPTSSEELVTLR
Method: as §2, §3, §4, §5, §6

[8] = Solubility observed in the enzymatic assay; assay type: physicochemical; conditions: no reliable data at concentrations higher than 30 µM (5) and 20 µM (6)
Method: as §3, §4, §5, §6

T1 sequence (A4HSF7 1-491): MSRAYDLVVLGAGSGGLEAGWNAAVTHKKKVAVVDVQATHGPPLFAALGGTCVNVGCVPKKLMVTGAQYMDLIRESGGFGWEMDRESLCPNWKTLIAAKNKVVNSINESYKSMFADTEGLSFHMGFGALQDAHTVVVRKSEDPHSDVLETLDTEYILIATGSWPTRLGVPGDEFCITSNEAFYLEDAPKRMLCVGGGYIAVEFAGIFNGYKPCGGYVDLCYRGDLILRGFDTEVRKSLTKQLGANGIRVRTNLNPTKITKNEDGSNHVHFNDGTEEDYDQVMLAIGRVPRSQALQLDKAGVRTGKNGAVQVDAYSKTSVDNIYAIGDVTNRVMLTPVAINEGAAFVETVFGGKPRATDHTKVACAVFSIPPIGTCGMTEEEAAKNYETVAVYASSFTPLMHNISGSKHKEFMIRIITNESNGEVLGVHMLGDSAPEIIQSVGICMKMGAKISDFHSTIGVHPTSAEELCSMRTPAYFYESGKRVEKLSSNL

Compound | SI = human THP-1-derived macrophage CC50/axenic amastigote EC50 [1] | CC50 at 72 h [2] [µM] | remaining activity at 10 µM ([3]; compound at 10 μM) [%] | CC50 at 72 h [4] [µM] | EC50 ([5]; Leishmania infantum) [µM] | remaining activity at 100 µM ([3]; compound at 100 μM) [%] | CC50 [1] [µM] | LiTR residual activity % ([3]; compound at 10 μM) | CC50 [6] [µM] | EC50 [5] [µM] | IC50 [7] [µM] | solubility in the enzymatic assay [8] | IC50 [3] [µM] | gain in LiTR IC50 with respect to 5 ([3]; compared to compound 5 (IC50 54.6 μM)) | SI (ratio of GR IC50/TR IC50) ([7]; hGR versus LiTR) | decrease in TR activity ([3]; compound at 100 μM) [%] | LiTR residual activity % ([3]; compound at 100 μM, 100 µM)
O=C(NCCc1ccc(F)cc1)c1ccc(CNC(=O)N2CCN(Cc3ccc(Cl)c(Cl)c3)CC2)o1 [Compound 13, 4-(3,4-Dichlorobenzyl)-N-((5-((4-fluorophenethyl)carbamoyl)furan-2-yl)methyl)piperazine-1-carboxamide] | 1.9 | 21 ± 3.1 | 89.2 ± 4.9 | 12.6 ± 0.9 | 11.2 ± 0.7 |  |  |  |  |  |  |  |  |  |  |  | 
O=C(Nc1ccc(F)cc1)N1CCN(CCCc2ccccc2)CC1 [Compound 4, N-(4-Fluorophenyl)-4-(3-phenylpropyl)piperazine-1-carboxamide] | 0.8 | 9.6 ± 0.71 |  | 12.9 ± 0.9 | 11.5 ± 2.1 | 96.7 ± 6.1 |  |  |  |  |  |  |  |  |  |  | 
O=C(NCCc1ccc(F)cc1)c1ccc(CNC(=O)N2CCN(CCCc3ccccc3)CC2)o1 [Compound 12, N-((5-((4-Fluorophenethyl)carbamoyl)furan-2-yl)methyl)-4-(3-phenylpropyl)piperazine-1-carboxamide] | 2.7 | 37.6 ± 13.8 | 74.6 ± 9.3 | 26.7 ± 4.5 | 14.1 ± 1.3 |  |  |  |  |  |  |  |  |  |  |  | 
4-(3,4-Dichlorobenzyl)-N-(4-fluorophenyl)-N-((5-(phenethylcarbamoyl)furan-2-yl)methyl)piperazine-1-carboxamide [Compound 8] | 1.1 |  |  |  |  |  | 11.7 ± 1.6 | 94.1 ± 4.9 @10 μM % | 14.4 ± 1.6 | 10.3 ± 0.9 |  |  |  |  |  |  | 
O=C(O)c1ccc(N(Cc2ccc(C(=O)NCCc3ccc(F)cc3)o2)C(=O)N2CCN(CCCc3ccccc3)CC2)cc1 [Compound 11, 4-(N-((5-((4-Fluorophenethyl)carbamoyl)furan-2-yl)methyl)-4-(3-phenylpropyl)piperazine-1-carboxamido)benzoic Acid] | >2 | > 50 | 74.5 ± 9.3 | > 50 | 25.6 ± 7.4 |  |  |  |  |  |  |  |  |  |  |  | 
N-((5-((4-Fluorophenethyl)carbamoyl)furan-2-yl)methyl)-N-(4-fluorophenyl)-4-(3-(2-(trifluoromethyl)-10H-phenothiazin-10-yl)propyl)piperazine-1-carboxamide [Compound 7] | 1.8 |  |  |  |  |  | 23.4 ± 4.6 | 70.8 ± 5.9 @10 μM % |  | 13 ± 1.5 |  |  |  |  |  |  | 
O=C(NCCc1ccc(F)cc1)c1ccc(CN(C(=O)N2CCN(CCCN3c4ccccc4Sc4ccc(Cl)cc43)CC2)c2ccc(F)cc2)o1 [Compound 6, 4-(3-(2-Chloro-10H-phenothiazin-10-yl)propyl)-N-((5-((4-fluorophenethyl)carbamoyl)furan-2-yl)methyl)-N-(4-fluorophenyl)piperazine-1-carboxamide] |  |  | 46.9 ± 18 |  | 12 ± 1.7 |  |  |  |  | 13 ± 1.5 | 9.6 ± 1.4 | low solubility | 21.7 ± 4.4 | more than 2 fold |  |  | 
O=C(NCCc1ccc(F)cc1)c1ccc(CN(C(=O)N2CCN(CCCc3ccccc3)CC2)c2ccc(F)cc2)o1 [Compound 5, N-((5-((4-Fluorophenethyl)carbamoyl)furan-2-yl)methyl)-N-(4-fluorophenyl)-4-(3-phenylpropyl)piperazine-1-carboxamide] | 0.8 | 9.6 ± 0.71 |  | 12.9 ± 0.9 | 11.5 ± 2.1 | 64.9 | 6.5 ± 0.6 |  | 9.1 ± 0.9 | 12 ± 1.7 | 163 ± 58.8 | low solubility | 54.6 ± 20.9 |  | 3 | 35.1 | 65.4 ± 3.0 @100 μM %
